These results are taken from publication PMC9243584, “Population Pharmacokinetics of Colistin Sulfate in Critically Ill Patients: Exposure and Clinical Efficacy” (Frontiers in Pharmacology, 2022).

The conditions of data set [1]: critically ill patients, ref Cheah et al., 2015, cited from earlier work.
In data set [2] the test system is isolates with lower MIC values (≤2 μg/ml). The following applies: isolates with MIC ≤2 μg/ml for both compounds; ref Sader et al., 2015; cited from earlier work. An excerpt: (§1) It should be noted that the currently used colistin sulfate in China was reapproved for clinical use by the Chinese National Medical Products Administration (NPMA) in 2018. Thus, modern pharmacological data including the clinical efficacy and side effects have not been reported. […] The clinical efficacy of colistin sulfate in the current study was similar to the efficacy of polymyxin B reported by [Lu et al. (2021]), who performed a retrospec ...

The nature of data set [3]: Population pharmacokinetic modeling (NONMEM) of intravenous colistin sulfate from plasma concentrations in critically ill patients. It is filed as in vivo, human. An excerpt: This retrospective, observational study was designed in accordance with the Declaration of Helsinki and was approved by the Ethical Committees of the First Affiliated Hospital of Wenzhou Medical University, China ([2022]036). Adult patients receiving colistin sulfate for confirmed multi-resistant Gram-negative bacterial infections from January 2020 to December 2021 at the First Affiliated Hospital of Wenzhou Medical University were selected. The inclusion criteria were as follows: a) ≥18 years of age; b) receiving colistin sulfate (Shanghai New Asia Pharmaceuticals, Shanghai, China) for at least 3 days; and c) at least one plasma concentration of colistin was collected.
The decision to administer colistin sulfate and its dosing regimen (dose amount, dosing interval, ways of administration, and treatment duration) was made by the attending physician. A loading dose of 1 million IU and a daily dose of 1.5 million IU divided into 2–3 times (maintenance dose) administered using an intravenous drip was recommended by the label sheet of colistin sulfate. In addition, for patients with pulmonary infection, inhalation of colistin sulfate (250,000 IU q12 h) was combinedly used; for patients with intracranial infection, colistin sulfate (50,000 IU q24 h) administered by the intraventricular/intrathecal (IVT/IT) route was combinedly used.
Plasma samples of colistin sulfate were collected after reaching the steady-state (attained after at least six doses). Dates and exact time of colistin sulfate administration and plasma sample collection were able to be indexed from the medical records. Plasma samples were separated by centrifugation for 5 min at 15,000 rpm immediately after sampling. The quantification of plasma concentration of colistin sulfate was performed using a validated high-performance liquid chromatography-tandem mass spectrometry assay ([Gobin et al., 2010]). The calibration ranges for colistin were 0.1–20 μg/ml. The method validations including calibration curve, selectivity, accuracy, precision, matrix effect, recovery, and stability met the requirement of FDA principles.
PopPK analysis was performed using the nonlinear mixed-effects modeling program NONMEM (version 7.4, Icon Development Solutions, Ellicott City, MD, USA) and Pirana (version 2.9.7). R (version 3.6.0) and Xpose (version 4.3.2) software packages were applied to generate diagnostic plots.
One- and two-compartment structural models with first-order elimination were explored for the concentration–time profiles of colistin sulfate. Between-subject variability (BSV) was assessed using an exponential function. Residual variability was assessed using additive, proportional, or combined (additive plus proportional) error models. The base model was selected based on the visual inspection of diagnostic plots and goodness-of-fit criteria, including precision and plausibility of parameter estimation and improvement of the objective function value (OFV).
Relationships between individual empirical Bayesian estimates of PK parameters and patient covariates were examined visually. Covariates were included using a stepwise forward selection process until no further decrease in OFV was observed. All of the significant covariates were then incorporated into the basic model to construct a full model. The included covariates were further assessed using backward elimination. The additional criterion for retaining the covariate in the final model was the decrease in the unexplained BSV and increase in PK parameter estimate precision.
Goodness-of-fit plots, nonparametric bootstrap, and visual predictive check were performed to evaluate the final model and parameter estimates. A nonparametric bootstrap procedure was conducted to assess the performance and stability of the final model. Random sampling with replacement was utilized to generate 1,000 replicate datasets using the individual as the sampling unit. […]

Data set [4] can be described thus: Acute kidney injury (RIFLE criteria) and colistin sulfate-related nephrotoxicity (Naranjo criteria). It is filed as in vivo, human. The following applies: 42 patients, not considered colistin's nephrotoxicity by Naranjo criteria. How it is done: Acute kidney injury (AKI) during the treatment of colistin sulfate was assessed using RIFLE criteria. AKI was defined as a 1.5-fold or more increase in serum creatinine and/or a decrease in the glomerular filtration rate (GFR) of 25% or more ([Han et al., 2022]). The definition of nephrotoxicity caused by colistin sulfate was further confirmed using the Naranjo criteria.

For data set [5] the following is noted: ref Han et al., 2022; cited from earlier work.
From the text: as §1, with “... || Nephrotoxicity is the main toxicity of concern with the treatment of polymyxins. However, it is amazing that no patient developed colistin sulfate-related nephrotoxicity in our study. […] Considering that polymyxin B and colistin have very similar molecular structures and PK characteristics, it is reasonable to conclude that the safety threshold of nephrotoxicity of colistin sulfate approaches that of polymyxin B. In the current study, most patient ...” for “...”

Details of data set [6]: method as in 2 sources, one per row (each row's own in cited_ref): ref Yu et al., 2021 ||| ref Wang et al., 2020. The following applies: cited from earlier work.
Data set [7] concerns CRO. The following applies: retrospective study, Chinese patients with CRO infections, median daily dose 1.72 mg/kg; ref Lu et al. (2021); cited from earlier work.
From the text: as §1

Where a name gives a salt, the structure may show the parent alone. Read-outs that look alike come from different tables or passages of the source. Positions of bridges follow the written chain, without caps; N, C: chain ends. Non-standard residues stand in square brackets, D forms with d. Residues, ends and D or L forms follow the SMILES beside them. *: point of attachment. X1 = CC[C@H](C)CCCCC(=O)*; Dab = NCC[C@H](N)C(=O)O

Take `CC[C@H](C)CCCCC(=O)N[C@@H](CCN)C(=O)N[C@H](C(=O)N[C@@H](CCN)C(=O)N[C@H]1CCNC(=O)[C@H]([C@@H](C)O)NC(=O)[C@H](CCN)NC(=O)[C@H](CCN)NC(=O)[C@H](CC(C)C)NC(=O)[C@@H](CC(C)C)NC(=O)[C@H](CCN)NC1=O)[C@@H](C)O` [colistin sulfate] (X1-[Dab]T[Dab][Dab][Dab][dL]L[Dab][Dab]T; lactam 4-C): the plasma unbound fraction was 0.5 in data set [1] and “about 0.5” in data set [1] (listed as colistin). Besides, the “potency compared with polymyxin B” value in data set [2] was “slightly greater potency than polymyxin B”. Also, the “CrCL on CL (θ1)” value in data set [3] (final model, covariate coefficient in CL = 0.994 + 0.525×CrCL/66.47) is listed as 0.525. In addition, the “TVV (typical value of volume of distribution)” value in data set [3] (final model, one-compartment) stood at 20.7 L. In data set [3] (final model, one-compartment, CL = 0.994 + 0.525×CrCL/66.47), the “TVCL (typical value of clearance)” value amounted to 0.994 L/h. Moreover, the clearance is 27.2 mL/min in data set [3] (human, plasma, iv, base model (Table S1), read-out: TVCL (converted)) and 29 mL/min in data set [3] (human, plasma, iv, mean ± SD across all 42 patients, SD, read-out: CL, individual empirical Bayesian estimate (converted)). The Vd in data set [3] (human, plasma, iv, base model (Table S1), read-out: TVV) was determined as 20.6 L; in data set [3] (human, plasma, iv, final model, one-compartment, read-out: TVV (typical value of volume of distribution)) it was 20.7 L. Moreover, in data set [3] (human, plasma, iv, mean ± SD, MAP Bayesian estimate per patient with the final PK model, SD, read-out: AUC (AUC0-24 at steady state, AUC0-24,ss)), the AUC(0-t) was 39400 ± 14500 ng·h/mL. In data set [4], the “patients who developed AKI during the treatment” value is on record as “two”.

As for polymyxin B sulfate, the “Cmin to prevent polymyxin B-related nephrotoxicity” value in data set [5] is recorded as “below 3.13 mg/L”. Moreover, the “median CL” value in data set [6] (Chinese adult patients, ref Wang et al., 2020) is 1.78 L/h. The CL in data set [6] (mean ± SD, adult critically ill patients, 112 concentrations from 32 patients, ref Yu et al., 2021, SD) was 1.75 L/h. In addition, the V in data set [6] (one-compartment model, adult critically ill patients, ref Yu et al., 2021) is reported as 20.5 L. Moreover, the “patients who achieved clinical success” value in data set [7] is reported as 57.6%.
